17 compounds from patent US8093231B2, “Sulfonylethyl phosphorodiamidates” (Telik, Inc., priority 2004, dated 2012) can be followed below.

Common to all, as to type: cell-based, human
The subject of assay [1] is LNCap (prostate carcinoma). Briefly: Cytotoxicity/growth inhibition assay, LNCap. The conditions noted are these: LNCap cells, 4 days culture, CellTiter-Glo, 0.1-200 μM tested; read-out: IC50 (LNCap). In outline:
(§1)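 Test compounds in DMSO (0.1–200 μM; final DMSO 0.5%) added to freshly diluted cells (3×10^3 cells/mL MX-1 and DLD-1, 6×10^3 cells/mL LNCap), triplicate wells. Cultured ~three doubling times (3 days MX-1, 4 days DLD-1/LNCap). CellTiter-Glo luminescence, 15 min room temperature; growth expressed as % of DMSO solvent control.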
On the technique in general: In ATP-based viability assays light output follows the ATP content of the culture.

Assay [2] has as its system MX-1 (breast carcinoma). Briefly: Cytotoxicity/growth inhibition assay, MX-1. As to conditions: MX-1 cells, 3 days culture, CellTiter-Glo, 0.1-200 μM tested; read-out: IC50 (MX-1). The gist of the method:
as §1

Assay [3] relates to DLD-1 (colorectal adenocarcinoma). Briefly: Cytotoxicity/growth inhibition assay, DLD-1. The conditions noted are these: DLD-1 cells, 4 days culture, CellTiter-Glo, 0.1-200 μM tested; read-out: IC50 (DLD-1). The gist of the method:
as §1

For orientation: IC50 means the concentration that gives 50% inhibition.

Consider `CC(C)NC(=O)[C@H](CS(=O)(=O)CCOP(=O)(N(CCCl)CCCl)N(CCCl)CCCl)NS(=O)(=O)c1ccccc1` [Compound 92A], for which the IC50 in assay [1] was determined as 36.1 µM; in assay [2], 14.7 µM; in assay [3], 7.3 µM.
In the same order, the values of `O=P(OCCS(=O)(=O)c1ccccc1Cl)(N(CCCl)CCCl)N(CCCl)CCCl` [Compound 106A] are 18.3 µM, 4.2 µM and 3.7 µM.
On the same counts, the results for `O=P(OCCS(=O)(=O)CCOCCOCCS(=O)(=O)CCOP(=O)(N(CCCl)CCCl)N(CCCl)CCCl)(N(CCCl)CCCl)N(CCCl)CCCl` [Compound 9B] are 25.5 µM, 6 µM and 6.1 µM.
Turning to `O=C(O)CCC(=O)Nc1cc(CS(=O)(=O)CCOP(=O)(N(CCCl)CCCl)N(CCCl)CCCl)cc(CS(=O)(=O)CCOP(=O)(N(CCCl)CCCl)N(CCCl)CCCl)c1` [Compound 18B], the IC50 was found to be 49.8 µM in assay [1], 8.4 µM in assay [2] and 2.7 µM in assay [3].
On the same counts, the results for `COC(=O)[C@H](CS(=O)(=O)CCOP(=O)(N(CCCl)CCCl)N(CCCl)CCCl)NS(=O)(=O)c1ccc(Cl)cc1` [Compound 81A] are 86.6 µM, 33.3 µM and 6.9 µM.
With `CC(C)(C)OC(=O)N[C@@H](CS(=O)(=O)CCOP(=O)(N(CCCl)CCCl)N(CCCl)CCCl)C(=O)N1CCN(C(=O)c2ccco2)CC1` [Compound 85A], the IC50 in assay [1] was 41.1 µM; in assay [2] it was 11.8 µM; in assay [3], 8.8 µM.
Take `O=P(OCCS(=O)(=O)c1ncnc2[nH]cnc12)(N(CCCl)CCCl)N(CCCl)CCCl` [Compound 125A]: the IC50 in assay [1] is 45.1 µM; in assay [2] it was 22.5 µM; in assay [3], 7.8 µM.
On the same counts, the results for `O=P(OCCS(=O)(=O)Cc1ccco1)(N(CCCl)CCCl)N(CCCl)CCCl` [Compound 179A] are 25.6 µM, 7.2 µM and 7.6 µM.
In the same order, the values of `O=C(O)c1cccc(S(=O)(=O)CCOP(=O)(N(CCCl)CCCl)N(CCCl)CCCl)c1` [Compound 119A] are 189 µM, 32.5 µM and 9.8 µM.
In the same order, the values of `O=C(O)[C@H](CS(=O)(=O)CCOP(=O)(N(CCCl)CCCl)N(CCCl)CCCl)NS(=O)(=O)c1ccc(Cl)cc1` [Compound 105A] are at least 200 µM, 31.6 µM and 23.1 µM.
Consider `O=P(OCCS(=O)(=O)c1cccc(C(F)(F)F)c1)(N(CCCl)CCCl)N(CCCl)CCCl` [Compound 116A], for which the IC50 in assay [1] amounted to 6.6 µM; in assay [2], 3.1 µM; in assay [3], 2.2 µM.
On the same counts, the results for `CC(C)(C)OC(=O)CCNC(=O)CS(=O)(=O)CCOP(=O)(N(CCCl)CCCl)N(CCCl)CCCl` [Compound 37A] are 28.9 µM, 8 µM and 8 µM.
For `Cn1ccnc1S(=O)(=O)CCOP(=O)(N(CCCl)CCCl)N(CCCl)CCCl` [Compound 122A], the results for the IC50 in assay [1], in assay [2] and in assay [3] were 23 µM, 4.3 µM and 3.1 µM, respectively.
In the same order, the values of `N#Cc1ccc(S(=O)(=O)N[C@@H](CS(=O)(=O)CCOP(=O)(N(CCCl)CCCl)N(CCCl)CCCl)C(=O)NCc2ccccc2)cc1` [Compound 99A] are 33.5 µM, 16.2 µM and 6.4 µM.
In the same order, the values of `O=P(OCCS(=O)(=O)c1nc2ccccc2s1)(N(CCCl)CCCl)N(CCCl)CCCl` [Compound 121A] are 8.5 µM, 2.6 µM and 1.2 µM.
In the same order, the values of `O=P(OCCS(=O)(=O)Cc1cccc[n+]1[O-])(N(CCCl)CCCl)N(CCCl)CCCl` [Compound 182A] are 22.3 µM, 8 µM and 7.1 µM.
On to `CC(C)(C)c1ccc(CS(=O)(=O)CCOP(=O)(N(CCCl)CCCl)N(CCCl)CCCl)cc1` [Compound 137A], for which the values for the IC50 in assay [1], in assay [2] and in assay [3] were 22.3 µM, 1.7 µM and 0.8 µM, respectively.
